Test results as given in PubChem BioAssay (NCI).
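Growth conditions: 96-well plates. Treatment: test compound, 48 hours, 5 concentrations. Analysis: linear interpolation between bracketing concentrations; unreached endpoints set to highest concentration. GI50: concentration for 50% inhibition of growth. TGI is the concentration that stops growth completely.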

Assays:
Test in all cases: inhibition of tumour cell growth, NCI panel, 48 h
[1] = system: 786-0 renal
[2] = system: A498 renal
[3] = system: NCI-H226 lung
[4] = system: OVCAR-3 ovarian
[5] = system: OVCAR-8 ovarian
[6] = system: RXF 393 renal
[7] = system: SK-MEL-2 melanoma
[8] = system: SK-MEL-5 melanoma
[9] = system: SNB-19 CNS
[10] = system: SNB-75 CNS

Row | Compound | TGI [1] | TGI [2] | TGI [3] | TGI [4] | TGI [5] | TGI [6] | TGI [7] | TGI [8] | TGI [9] | TGI [10] | GI50 [1] | GI50 [2] | GI50 [3] | GI50 [4] | GI50 [5] | GI50 [6] | GI50 [7] | GI50 [8] | GI50 [9] | GI50 [10]
1 | CN=S(=O)(c1ccccc1)c1ccccc1 | > 100 µM | > 100 µM | > 100 µM | > 100 µM | > 100 µM | > 100 µM | > 100 µM | > 100 µM | > 100 µM | > 100 µM | – | – | – | – | – | – | – | – | – | –
2 | C=C1CC[C@@H]2[C@](C)(COC(C)=O)[C@H](OC(C)=O)CC[C@@]2(C)[C@@H]1CC(Nc1ccc(S(=O)(=O)Nc2nccc(C)n2)cc1)C1=CCOC1=O (some centres undefined) | 5.06 µM | 28.4 µM | 5.91 µM | 3.36 µM | 8.56 µM | 4.18 µM | 20 µM | 14 µM | 20.7 µM | 14.9 µM | 2.27 µM | 14.8 µM | 2.33 µM | 1.76 µM | 2.61 µM | 2.33 µM | 6.01 µM | 3.79 µM | 6.3 µM | 2.69 µM
3 | Cc1nc2sc(C(=O)Nc3ccccc3)c(N)c2cc1C(=O)/C=C/c1ccccc1 | 3.01 µM | 6.08 µM | 4.6 µM | 4.14 µM | 11.8 µM | 3.25 µM | 14.6 µM | 5.98 µM | 4.17 µM | 6.12 µM | 1.51 µM | 2.21 µM | 2.04 µM | 1.9 µM | 3.03 µM | 1.67 µM | 3.37 µM | 2.27 µM | 1.89 µM | 2.18 µM
4 | N#CC(C(=O)C(=O)NCCCNC(=O)C(=O)C(C#N)c1ccccc1)c1ccccc1 (centres undefined) | > 100 µM | > 100 µM | > 100 µM | > 100 µM | > 100 µM | > 100 µM | > 100 µM | > 100 µM | > 100 µM | > 100 µM | – | – | – | – | – | – | – | – | – | –
5 | CCc1cc(O)c(Cl)c(C)c1Cl | 30.8 µM | 28.2 µM | – | 33.5 µM | 40.6 µM | 28.7 µM | > 100 µM | 33.3 µM | 95.6 µM | 34.1 µM | – | – | – | – | – | – | – | – | – | –
6 | CC1S(=O)(=O)OCCOS1(=O)=O | > 100 µM | > 100 µM | > 100 µM | > 100 µM | > 100 µM | > 100 µM | > 100 µM | > 100 µM | > 100 µM | > 100 µM | – | – | – | – | – | – | – | – | – | –
7 | CC(C)(C)c1ccc(S(=O)(=O)N[C@H]2CC[C@H]3[C@@H]4CCc5cc(OS(=O)(=O)O)ccc5[C@H]4CC[C@]23C)cc1 | 6.3 µM | 3.04 µM | 3.06 µM | – | 8.46 µM | 3.49 µM | 5.86 µM | 2.99 µM | 13.8 µM | 6.11 µM | 2.5 µM | 1.5 µM | 1.59 µM | – | 2.79 µM | 1.6 µM | 2.46 µM | 1.64 µM | 3.49 µM | 2.03 µM
8 | COc1nc2nccc-2c2occn12 | > 100 µM | > 100 µM | – | > 100 µM | > 100 µM | > 100 µM | > 100 µM | > 100 µM | > 100 µM | > 100 µM | – | – | – | – | – | – | – | – | – | –
9 | COc1ccc(C2S/C(=C\c3ccc(O)cc3)C(=O)N2NC(=O)Cc2ccccc2)cc1 (centres undefined) | > 100 µM | > 100 µM | > 100 µM | – | > 100 µM | > 100 µM | > 100 µM | > 100 µM | – | > 100 µM | – | – | – | – | – | – | – | – | – | –
